Where two headings read alike, the source gives them in different places.
Experiments:
[1] = tested on: anesthetized dogs (Beagles); assay: Cardio-hemodynamic, cardio-electrophysiological, EEG and pulmonary effects in ventilated, anesthetized dogs; assay type: in vivo, dog; settings: for Median plasma level: 5-min i.v. infusion
Protocol: (§1) The animals were anesthetized with a mixture of 0.015 mg/kg i.v. scopolamine and 0.075 mg/kg i.v. lofentanil, and relaxed with succinylcholine (5 mg/kg i.v.) followed by a continuous i.v. infusion of 1.5 mg/kg/h of etomidate and small additional doses of fentanyl (0.025 mg/kg i.v.) were given at 60 min intervals. The animals were ventilated and prepared for measurements of the surface ECG, aortic-, pulmonary- and left ventricular blood pressure, carotid blood flow, monophasic action potential, body temperature, blood gasses and EEG (see Van Deuren et al, J Pharmacol Toxicol Methods; 2009; 60: 11-23). Compound (−)-17 was dissolved in 20% hydroxypropyl-cyclodextrin with NaOH, HCl and mannitol in pyrogen-free water and administered intravenously (1 ml/kg) in increasing doses (0.16, 0.32, 0.63, 1.25, 2.5 and 5 mg/kg) over a period of 5 min at 30-min intervals. Plasma concentrations of Compound (−)-17 were measured before and at the end of each infusion. Corresponding volumes of vehicle were administered according to the same protocol in a second group of animals.

[2] = as above; assay type: in vivo, dog; settings: Beagle, plasma, iv, dog, 5-min i.v. infusion
Protocol: as §1

[3] = target: 5HT2B (Homo sapiens, UniProt P41595); assay: 5-HT2B antagonism, FLIPR intracellular calcium in transfected CHO-K1 cells; assay type: cell-based; parameters: expressed in transfected cells; host or cells: CHO-K1 (ECACC); settings: for IC50: CHO-K1 cells, response to 0.1 nM serotonin, Fluo-3 FLIPR; for Kb: modified Cheng Prusoff equation from IC50, read-out: 5-HT2B antagonism KB (apparent dissociation constant)
Protocol: CHO-K1 (ECACC) cells were stably transfected with human 5-HT2B receptor cDNA subcloned into pCDNA3.1 using the calcium phosphate method. Stably transfected cell lines were selected using G-418, and clonal cell lines were developed by limit dilution. Cell lines were cultured in Dulbecco's modified Eagle Medium (DMEM) containing 10% heat inactivated dialyzed foetal bovine serum (FBS), 1% penicillin-streptomycin, 1% L-glutamine and 1% non-essential amino acids.
Confluent monolayers plated into black 96 well plates with clear bottoms were loaded with 4 μM Fluo-3-AM for 90 min at 37° C. in Hanks balanced salt solution supplemented with 20 mM HEPES and 2.5 mM probenecid. After washing, the test compound was added to the cells and maximal fluorescence in response to 0.1 nM serotonin was recorded using a fluorometric imaging plate reader (FLIPR) to detect changes in intracellular calcium levels.
The maximal fluorescence recorded in the presence of the test compound was expressed as a percent of the maximal fluorescence response to the agonist serotonin (0.1 nM). […] The apparent dissociation constant (KB) was calculated using the modified Cheng Prusoff equation (KB=IC50/(1+(A/EC50A)), where A=concentration of serotonin, and EC50A=EC50 value of serotonin in this assay). (Porter et al. (1999), Br. J. Pharmacol., 128: 13-20)

Chain of 5HT2B (P41595 whole entry): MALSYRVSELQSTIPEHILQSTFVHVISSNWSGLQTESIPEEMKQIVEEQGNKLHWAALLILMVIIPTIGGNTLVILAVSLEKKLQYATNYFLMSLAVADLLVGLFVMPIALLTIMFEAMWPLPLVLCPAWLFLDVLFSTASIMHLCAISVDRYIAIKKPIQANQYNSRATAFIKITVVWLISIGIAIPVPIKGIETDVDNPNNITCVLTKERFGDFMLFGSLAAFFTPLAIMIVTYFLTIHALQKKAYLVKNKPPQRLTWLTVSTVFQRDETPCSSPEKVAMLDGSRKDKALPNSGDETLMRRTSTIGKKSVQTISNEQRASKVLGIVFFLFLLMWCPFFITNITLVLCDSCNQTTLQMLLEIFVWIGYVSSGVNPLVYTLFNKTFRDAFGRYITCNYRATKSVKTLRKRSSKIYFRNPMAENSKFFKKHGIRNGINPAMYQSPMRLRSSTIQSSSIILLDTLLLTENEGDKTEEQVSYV

COc1cc(N)c(Cl)cc1C(=O)NC1CCN(CCCOc2ccc(F)cc2)CC1(F)F (single isomer, unassigned) [Compound (−)-17, 4-amino-5-chloro-N-{3,3-difluoro-1-[3-(4-fluorophenoxy)-propyl]-piperidin-4-yl}-2-methoxybenzamide]
DPP, percentage change relative to vehicle ([1]; dog i.v. 0.16 mg/kg @ 5′): +3% | HR, percentage change relative to vehicle ([1]; dog i.v. 0.16 mg/kg @ 5′): −4% | LVdp/dtmax, percentage change relative to vehicle ([1]; dog i.v. 0.16 mg/kg @ 5′): −1% | MBP, percentage change relative to vehicle ([1]; dog i.v. 0.16 mg/kg @ 5′): +2% | PQ, percentage change relative to vehicle ([1]; dog i.v. 0.16 mg/kg @ 5′): −1% | QRS, percentage change relative to vehicle ([1]; dog i.v. 0.16 mg/kg @ 5′): +1% | QTcV, percentage change relative to vehicle ([1]; dog i.v. 0.16 mg/kg @ 5′): +2% | SPP, percentage change relative to vehicle ([1]; dog i.v. 0.16 mg/kg @ 5′): +2% | DPP, percentage change relative to vehicle ([1]; dog i.v. 0.16 mg/kg @ 30′): −3% | HR, percentage change relative to vehicle ([1]; dog i.v. 0.16 mg/kg @ 30′): −5% | LVdp/dtmax, percentage change relative to vehicle ([1]; dog i.v. 0.16 mg/kg @ 30′): +0% | MBP, percentage change relative to vehicle ([1]; dog i.v. 0.16 mg/kg @ 30′): +3% | PQ, percentage change relative to vehicle ([1]; dog i.v. 0.16 mg/kg @ 30′): −0% | QRS, percentage change relative to vehicle ([1]; dog i.v. 0.16 mg/kg @ 30′): +2% | QTcV, percentage change relative to vehicle ([1]; dog i.v. 0.16 mg/kg @ 30′): +4% | SPP, percentage change relative to vehicle ([1]; dog i.v. 0.16 mg/kg @ 30′): +5% | DPP, percentage change relative to vehicle ([1]; dog i.v. 0.32 mg/kg @ 5′): +0% | HR, percentage change relative to vehicle ([1]; dog i.v. 0.32 mg/kg @ 5′): −5% | LVdp/dtmax, percentage change relative to vehicle ([1]; dog i.v. 0.32 mg/kg @ 5′): +0% | MBP, percentage change relative to vehicle ([1]; dog i.v. 0.32 mg/kg @ 5′): +5% | PQ, percentage change relative to vehicle ([1]; dog i.v. 0.32 mg/kg @ 5′): −2% | QRS, percentage change relative to vehicle ([1]; dog i.v. 0.32 mg/kg @ 5′): +3% | QTcV, percentage change relative to vehicle ([1]; dog i.v. 0.32 mg/kg @ 5′): +2% | SPP, percentage change relative to vehicle ([1]; dog i.v. 0.32 mg/kg @ 5′): +11% | DPP, percentage change relative to vehicle ([1]; dog i.v. 0.32 mg/kg @ 30′): −8% | HR, percentage change relative to vehicle ([1]; dog i.v. 0.32 mg/kg @ 30′): +3% | LVdp/dtmax, percentage change relative to vehicle ([1]; dog i.v. 0.32 mg/kg @ 30′): −4% | MBP, percentage change relative to vehicle ([1]; dog i.v. 0.32 mg/kg @ 30′): +2% | PQ, percentage change relative to vehicle ([1]; dog i.v. 0.32 mg/kg @ 30′): −2% | QRS, percentage change relative to vehicle ([1]; dog i.v. 0.32 mg/kg @ 30′): +4% | QTcV, percentage change relative to vehicle ([1]; dog i.v. 0.32 mg/kg @ 30′): +1% | SPP, percentage change relative to vehicle ([1]; dog i.v. 0.32 mg/kg @ 30′): −3% | DPP, percentage change relative to vehicle ([1]; dog i.v. 0.63 mg/kg @ 5′): +0% | HR, percentage change relative to vehicle ([1]; dog i.v. 0.63 mg/kg @ 5′): −0% | LVdp/dtmax, percentage change relative to vehicle ([1]; dog i.v. 0.63 mg/kg @ 5′): −3% | MBP, percentage change relative to vehicle ([1]; dog i.v. 0.63 mg/kg @ 5′): +6% | PQ, percentage change relative to vehicle ([1]; dog i.v. 0.63 mg/kg @ 5′): +3% | QRS, percentage change relative to vehicle ([1]; dog i.v. 0.63 mg/kg @ 5′): +4% | QTcV, percentage change relative to vehicle ([1]; dog i.v. 0.63 mg/kg @ 5′): +1% | SPP, percentage change relative to vehicle ([1]; dog i.v. 0.63 mg/kg @ 5′): −2% | DPP, percentage change relative to vehicle ([1]; dog i.v. 0.63 mg/kg @ 30′): −9% | HR, percentage change relative to vehicle ([1]; dog i.v. 0.63 mg/kg @ 30′): +4% | LVdp/dtmax, percentage change relative to vehicle ([1]; dog i.v. 0.63 mg/kg @ 30′): −2% | MBP, percentage change relative to vehicle ([1]; dog i.v. 0.63 mg/kg @ 30′): +2% | PQ, percentage change relative to vehicle ([1]; dog i.v. 0.63 mg/kg @ 30′): −0% | QRS, percentage change relative to vehicle ([1]; dog i.v. 0.63 mg/kg @ 30′): +1% | QTcV, percentage change relative to vehicle ([1]; dog i.v. 0.63 mg/kg @ 30′): +4% | SPP, percentage change relative to vehicle ([1]; dog i.v. 0.63 mg/kg @ 30′): −1% | DPP, percentage change relative to vehicle ([1]; dog i.v. 1.25 mg/kg @ 5′): −7% | HR, percentage change relative to vehicle ([1]; dog i.v. 1.25 mg/kg @ 5′): −0% | LVdp/dtmax, percentage change relative to vehicle ([1]; dog i.v. 1.25 mg/kg @ 5′): −1% | MBP, percentage change relative to vehicle ([1]; dog i.v. 1.25 mg/kg @ 5′): +10% | PQ, percentage change relative to vehicle ([1]; dog i.v. 1.25 mg/kg @ 5′): +2% | QRS, percentage change relative to vehicle ([1]; dog i.v. 1.25 mg/kg @ 5′): +4% | QTcV, percentage change relative to vehicle ([1]; dog i.v. 1.25 mg/kg @ 5′): +2% | SPP, percentage change relative to vehicle ([1]; dog i.v. 1.25 mg/kg @ 5′): −1% | DPP, percentage change relative to vehicle ([1]; dog i.v. 1.25 mg/kg @ 30′): −12% | HR, percentage change relative to vehicle ([1]; dog i.v. 1.25 mg/kg @ 30′): −3% | LVdp/dtmax, percentage change relative to vehicle ([1]; dog i.v. 1.25 mg/kg @ 30′): −5% | MBP, percentage change relative to vehicle ([1]; dog i.v. 1.25 mg/kg @ 30′): +0% | PQ, percentage change relative to vehicle ([1]; dog i.v. 1.25 mg/kg @ 30′): +2% | QRS, percentage change relative to vehicle ([1]; dog i.v. 1.25 mg/kg @ 30′): +2% | QTcV, percentage change relative to vehicle ([1]; dog i.v. 1.25 mg/kg @ 30′): +1% | SPP, percentage change relative to vehicle ([1]; dog i.v. 1.25 mg/kg @ 30′): −9% | DPP, percentage change relative to vehicle ([1]; dog i.v. 2.5 mg/kg @ 5′): +1% | HR, percentage change relative to vehicle ([1]; dog i.v. 2.5 mg/kg @ 5′): −5% | LVdp/dtmax, percentage change relative to vehicle ([1]; dog i.v. 2.5 mg/kg @ 5′): −8% | PQ, percentage change relative to vehicle ([1]; dog i.v. 2.5 mg/kg @ 5′): +6% | QRS, percentage change relative to vehicle ([1]; dog i.v. 2.5 mg/kg @ 5′): +2% | QTcV, percentage change relative to vehicle ([1]; dog i.v. 2.5 mg/kg @ 5′): −3% | SPP, percentage change relative to vehicle ([1]; dog i.v. 2.5 mg/kg @ 5′): −1% | DPP, percentage change relative to vehicle ([1]; dog i.v. 2.5 mg/kg @ 30′): −24% | HR, percentage change relative to vehicle ([1]; dog i.v. 2.5 mg/kg @ 30′): −4% | LVdp/dtmax, percentage change relative to vehicle ([1]; dog i.v. 2.5 mg/kg @ 30′): +2% | MBP, percentage change relative to vehicle ([1]; dog i.v. 2.5 mg/kg @ 30′): +0% | PQ, percentage change relative to vehicle ([1]; dog i.v. 2.5 mg/kg @ 30′): +2% | QRS, percentage change relative to vehicle ([1]; dog i.v. 2.5 mg/kg @ 30′): +3% | QTcV, percentage change relative to vehicle ([1]; dog i.v. 2.5 mg/kg @ 30′): −1% | SPP, percentage change relative to vehicle ([1]; dog i.v. 2.5 mg/kg @ 30′): −15% | DPP, percentage change relative to vehicle ([1]; dog i.v. 5 mg/kg @ 5′): +17% | HR, percentage change relative to vehicle ([1]; dog i.v. 5 mg/kg @ 5′): −15% | LVdp/dtmax, percentage change relative to vehicle ([1]; dog i.v. 5 mg/kg @ 5′): −11% | PQ, percentage change relative to vehicle ([1]; dog i.v. 5 mg/kg @ 5′): +2% | QRS, percentage change relative to vehicle ([1]; dog i.v. 5 mg/kg @ 5′): +6% | QTcV, percentage change relative to vehicle ([1]; dog i.v. 5 mg/kg @ 5′): −3% | SPP, percentage change relative to vehicle ([1]; dog i.v. 5 mg/kg @ 5′): −10% | DPP, percentage change relative to vehicle ([1]; dog i.v. 5 mg/kg @ 30′): −5% | HR, percentage change relative to vehicle ([1]; dog i.v. 5 mg/kg @ 30′): −14% | LVdp/dtmax, percentage change relative to vehicle ([1]; dog i.v. 5 mg/kg @ 30′): +2% | MBP, percentage change relative to vehicle ([1]; dog i.v. 5 mg/kg @ 30′): +0% | QRS, percentage change relative to vehicle ([1]; dog i.v. 5 mg/kg @ 30′): +3% | QTcV, percentage change relative to vehicle ([1]; dog i.v. 5 mg/kg @ 30′): −2% | SPP, percentage change relative to vehicle ([1]; dog i.v. 5 mg/kg @ 30′): −7% | effect on heart rate, pulmonary artery pressure, LV end diastolic pressure, cardiac output, stroke volume, pressure rate product, PQ and QRS, lung function, body temperature, EEG ([1]; dog, 0.16 up to 5 mg/kg i.v., relative to vehicle): no relevant effect | Median plasma level ([1]; dog, dose 0.16 mg/kg (increasing doses, 30-min intervals)): 725 ng/mL | Median plasma level ([1]; dog, dose 0.32 mg/kg (increasing doses, 30-min intervals)): 1420 ng/mL | Median plasma level ([1]; dog, dose 0.64 mg/kg (increasing doses, 30-min intervals)): 2540 ng/mL | LV dp/dtmax/pd ([1]; dog, at 2.5 mg/kg i.v.): started to decrease | duration of QTc VDW and QTc VcT ([1]; dog, at 5 mg/kg i.v.): minor decrease | arterial blood pressure, vascular resistance (systemic and common carotid) and Tau ([1]; dog, from 1.25 mg/kg i.v. onwards): started to increase | Cmax ([2]; dose 1.25 mg/kg (increasing doses, 30-min intervals), read-out: Median plasma level (Cmax)): 5200 ng/mL | Cmax ([2]; dose 2.5 mg/kg (increasing doses, 30-min intervals), read-out: Median plasma level (Cmax)): 9550 ng/mL | Cmax ([2]; dose 5 mg/kg (increasing doses, 30-min intervals; total dose 9.86 mg/kg), read-out: Median plasma level (median Cmax)): 20400 ng/mL | IC50 [3]: 1.6 nM | Kb [3]: 0.55 nM

COc1cc(N)c(Cl)cc1C(=O)NC1CCN(CCCOc2ccc(F)cc2)CC1(F)F (single isomer, unassigned; (+)) [(+)-17, 4-amino-5-chloro-N-{3,3-difluoro-1-[3-(4-fluorophenoxy)-propyl]-piperidin-4-yl}-2-methoxybenzamide]
IC50 [3]: 33 nM | Kb [3]: 11 nM

Reference: patent US9139523B2, “5-HT2B receptor antagonists” (Janssen Pharmaceutica, NV, priority 2010, dated 2015)
